Data taken from PMC9676923, “Characterization of relaxin 3 and its receptors in chicken: Evidence for relaxin 3 acting as a novel pituitary hormone” (Frontiers in Physiology, 2022).
“Also recorded” adds a separate entry of the source.

What was measured:
[1] = tested on: cRLN3 mRNA expression in cultured chicken pituitary cells; details: dihydrotestosterone 100 nM, 4 h/24 h; male chick pituitary cells; qPCR
Procedure: (§3) The primers (10 μM), dNTP (10 mM), easy Taq buffer, easy Taq DNA polymerase (TransGen Biotech), Eva Green (Biotium), MilliQ-H2O, and templates were mixed in a total volume of 20 μl. Then the reaction mix was conducted on the CFX96 Real-Time PCR Detection System (Bio-Rad). The amplification conditions included an initial denaturation for 10 min at 94°C followed by 20 s of denaturation at 94°C, 15 s annealing at 60°C, and 30 s extension at 72°C for 40 cycles.
To explore the regulatory effects of GnRH/CRH/E2/P4 on cRLN3, the anterior pituitaries isolated from 4-week-old female chicks were sliced and digested by 0.25% trypsin at 37°C for 20 min. The dispersed pituitary cells were cultured at a density of 5 × 10^5 cells/well in Medium 199 supplemented with 15% fetal bovine serum. Then, the medium was replaced with a serum-free M199 medium and the cells were incubated with GnRH (1–100 nM), CRH (0.1–10 nM), E2 (100 nM), and P4 (100 nM) for different duration times (4 h/24 h). […]
(§4) The relative mRNA levels of target genes were first calculated as the ratios to that of β-actin and then expressed as fold change (or the percentage) compared to their respective controls (chosen tissues). The data were analyzed by Student’s t-test (between two groups), or by one-way ANOVA followed by the Dunnett test in GraphPad Prism 7 (GraphPad Software, San Diego, CA).

[2] = tested on: cRLN3 mRNA expression in cultured chicken pituitary cells; assay: cRLN3 mRNA expression (qPCR) in cultured pituitary cells of 4-week-old female chicks; assay type: cell-based
Procedure: as §3
To explore the regulatory effects of GnRH/CRH/E2/P4 on cRLN3, the anterior pituitaries isolated from 4-week-old female chicks were sliced and digested by 0.25% trypsin at 37°C for 20 min. The dispersed pituitary cells were cultured at a density of 5 × 10^5 cells/well in Medium 199 supplemented with 15% fetal bovine serum. Then, the medium was replaced with a serum-free M199 medium and the cells were incubated with GnRH (1–100 nM), CRH (0.1–10 nM), E2 (100 nM), and P4 (100 nM) for different duration times (4 h/24 h). […] The total RNA was then extracted from cultured pituitary cells and the expression of RLN3 and β-actin mRNA was assayed by qPCR.
as §4

[3] = tested on: CART; details: chicken pituitary, ref Cai et al., 2015, Mo et al., 2019; cited from earlier work
Description: Till present, a total of five genes (LHB, FSHB, GRP, CART, and RLN3) have been detected to be abundantly expressed in chicken pituitary gonadotrope cells ([Mo et al., 2017]; [Zhang et al., 2021]). Although these genes concentrate on the same cell cluster, these genes vary in sexual distribution patterns, cell co-localization profiles, and the hypothalamus regulation networks. For example, RLN3 and GRP show an abundance in female gonadotrope cells while LHB, FSHB, and CART show a higher expression in male pituitary cells. In addition, all cells expressing RLN3 overlap with the cells expressing ...

[4] = target: chicken relaxin family peptide 1 receptor (cRXFP1) (chicken)
[5] = tested on: cRXFP1; assay: pGL3-CRE-luciferase reporter (cAMP/PKA), HEK293 cells expressing cRXFP1; assay type: cell-based, chicken
Procedure: According to our previously established methods ([Liu et al., 2019]; [Jiang et al., 2022]), two cell-based luciferase reporter systems (pGL3-CRE-luciferase and pGL3-NFAT-RE-luciferase) were used to verify whether cRLN3cm is biologically active and capable of activating cRXFP1 and cRXFP3. In brief, HEK293 cells transiently expressing each receptor (cRXFP1 and cRXFP3) were treated with 30 μl serum-free medium containing cRLN3cm or pcDNAcm (0.001–10 μl) for 6 h, and the receptor-activated cAMP/PKA pathways and calcium mobilization were then monitored by pGL3-CRE-luciferase and pGL3-NFAT-RE-luciferase reporter systems, respectively. HEK293 cells expressing empty pcDNA3.1 (+) were used as a negative control.
To compare the functional difference between chicken RLN3 and human RLN3, recombinant human RLN3 (rhRLN3, 10^–12 to 10^–7 M, 6 h) was used to treat HEK293 cells expressing cRXFP1 or cRXFP3, respectively, and its potency in activating cRXFP1 and cRXFP3 was also evaluated.
To verify whether chicken RLN3 can activate RXFP1 or RXFP3, a cRLN3-conditioned medium (cRLN3cm, 0.001–10 μl) was used to treat HEK293 cells expressing cRXFP1/cRXFP3. Receptor activation was examined by pGL3-CRE-luciferase and pGL3-NFAT-RE-luciferase reporter systems established in our previous studies ([Liu et al., 2019]).

[6] = tested on: relaxin family peptide 2 receptor (RXFP2); details: ref Kumagai et al., 2002; Hsu et al., 2003; cited from earlier work
Description: (§1) As the typical member of the insulin superfamily, the RLNs bind their receptors to play their physiological roles. In mammals, RLN1 and RLN2 bind the relaxin family peptide 1 receptor (RXFP1) for downstream signaling ([Bathgate et al., 2013]). As their cognate receptor, RXFP1, which is also called the leucine-rich repeat-containing G-protein-coupled receptor 7 (LGR7), is capable of coupling to multiple G-proteins, thus triggering the pathways including cAMP accumulation ([Halls et al., 2006]; [Halls et al., 2007]; [Halls et al., 2009]), ERK1/2 phosphorylation, NO production, and other signalin ...

[7] = target: chicken relaxin family peptide 1 receptor (cRXFP1) (chicken); remark: listed apart in the source
[8] = target: chicken relaxin family peptide 3 receptor (cRXFP3) (chicken)
[9] = tested on: RXFP1; details: ref Sudo et al., 2003, cited from earlier work
Description: As the typical member of the insulin superfamily, the RLNs bind their receptors to play their physiological roles. In mammals, RLN1 and RLN2 bind the relaxin family peptide 1 receptor (RXFP1) for downstream signaling ([Bathgate et al., 2013]). […] However, only a dose-dependent increase in luciferase activity in HEK293 cells expressing chicken cRXFP1 is detected in the present study which is different from the report in mammalian species that RXFP1 is capable of coupling to Gs and other G-proteins (Gi/o), thus showing a biphasic pattern o ...

[10] = tested on: RXFP3; details: human RXFP3, Gαi/o coupled, ref Liu et al., 2003b, 2005, Bathgate et al., 2006, van der Westhuizen et al., 2007; cited from earlier work
Description: as §1

[11] = intraventricular (icv) injection, ref McGowan et al., 2008, 2014; cited from earlier work
Description: (§2) Since GnRH is pulsed secreted and negatively regulated by CRH ([Ciechanowska et al., 2010]), the expression of RLN3 mRNA may be regulated by CRH. As the key player in the hypothalam ...

[12] = tested on: rat hypothalamic explants; details: ref McGowan et al., 2008, 2014; cited from earlier work
Description: as §2

[13] = tested on: E2 production during follicular development; details: female teleost fish; ref Wilson et al., 2009; Yang et al., 2020; cited from earlier work
Description: Supporting evidence also comes from the high expression of its cognate receptor (cRXFP1) in chicken tissues. Similar to rats, RXFP1 is highly expressed in the uterus involving uterine contractions ([Hsu et al., 2002]; [Vodstrcil et al., 2010]). In addition, cRXFP1 is also detected to be expressed highly in a wide range of female tissues (infundibulum, isthmus, uterus, and vagina), th ...

[14] = tested on: RXFP3; details: ref Liu et al., 2005; cited from earlier work
Description: Although cRLN3 is able to activate both cRXFP1 and cRXFP3, the potency of cRLN3 for cRXFP1 activation is at least 10-fold higher than that for cRXFP3. […] The present study supports that chicken RLN3 is a functional analog of rhRLN3. However, our finding contrasts with that of mammalian species. […] The difference may result from ligand–receptor interaction mo ...

C[C@]12CCC(=O)C[C@@H]1CC[C@@H]1[C@@H]2CC[C@]2(C)[C@@H](O)CC[C@@H]12 [DHT, dihydrotestosterone]
effect of DHT on cRLN3 mRNA expression [1]: could not affect the expression of cRLN3 mRNA

C[C@]12CC[C@@H]3c4ccc(O)cc4CC[C@H]3[C@@H]1CC[C@@H]2O [E2, 17β-estradiol]
effect of E2 on cRLN3 mRNA expression, 4 h ([2]; 17β-estradiol 100 nM, 4 h, qPCR): could increase the expression level of cRLN3 mRNA; also recorded: found to increase the expression of cRLN3
effect of E2 on cRLN3 mRNA expression, 24 h ([2]; 17β-estradiol 100 nM, 24 h, qPCR): could not regulate the mRNA expression of cRLN3

CC(=O)[C@H]1CC[C@H]2[C@@H]3CCC4=CC(=O)CC[C@]4(C)[C@H]3CC[C@]12C [P4, progesterone]
effect of P4 on cRLN3 mRNA expression ([2]; progesterone 100 nM, 4 h/24 h, qPCR): could not affect the expression of cRLN3 mRNA

Chicken gonadotropin-releasing hormone (QHWSYGLQPG; Gonadoliberin-1; UniProt P37042 24-33, looked up) [GnRH, synthesized using solid-phase Fmoc chemistry (GL Biochem, Shanghai, China)]
effect of GnRH on cRLN3 mRNA expression, 4 h ([2]; GnRH 10 nM, 4 h, qPCR, fold vs control): slightly increase the expression of cRLN3 mRNA
effect of GnRH on cRLN3 mRNA expression, 24 h ([2]; GnRH 10 nM, 24 h, qPCR, fold vs control): not able to further regulate the expression of cRLN3 mRNA
effect of GnRH on cRLN3 mRNA expression, dose response ([2]; GnRH 1, 10, 100 nM, 4 h, qPCR, N = 4): could increase the expression level of cRLN3 mRNA in a dose-dependent manner; also recorded: could only weakly stimulate the mRNA expression of cRLN3
regulation of CART, GnRH compared with CRH [3]: equal potency

chicken relaxin 3 (cRLN3), in conditioned medium of HEK293 cells transfected with the cRLN3 expression plasmid (ligand)
potency of cRLN3cm in activating cRXFP1 relative to cRXFP3, pGL3-CRE-luciferase reporter in HEK293 cells [4]: > 10 fold

chicken relaxin 3 [cRLN3]
potency on cRXFP1 compared with cRXFP3 (in words) ([5]; HEK293 cells expressing cRXFP1 or cRXFP3): cRXFP1 showed a higher binding potency with cRLN3 than cRXFP3
potency in activating cRXFP1 relative to cRXFP3 ([5]; fold more potent on cRXFP1 than on cRXFP3, cRLN3cm, HEK293 cells): at least 10 fold

corticotropin-releasing hormone [CRH]
effect of CRH on cRLN3 mRNA expression, time course ([2]; CRH 10 nM, 4 h and 24 h, qPCR, fold vs control): significantly increase the expression of cRLN3 mRNA in a time-dependent manner
effect of CRH on cRLN3 mRNA expression, dose response ([2]; CRH 0.1, 1, 10 nM, 24 h, qPCR, N = 4): could increase the expression level of cRLN3 mRNA in a dose-dependent manner; also recorded: potently stimulates the expression of cRLN3 in a dose- and time-dependent manner
stimulation of cRLN3 mRNA expression, CRH compared with GnRH ([2]; CRH 0.1–10 nM, 24 h vs GnRH 1–100 nM, 4 h): the stimulation effect of CRH was higher than that of GnRH
regulation of CART, GnRH compared with CRH [3]: equal potency

insulin-like peptide 3 [INSL3]
RXFP2 downstream signaling [6]: cAMP level increase and thymidine incorporation

recombinant human relaxin 3 (rhRLN3) (ligand)
EC50 of activation, Ca2+ pathway (pGL3-NFAT-RE-luciferase reporter) in HEK293 cells expressing cRXFP1; rhRLN3 10^-12 to 10^-7 M, 6 h [7]: 21.1 nM
EC50 of activation, cAMP/PKA pathway (pGL3-CRE-luciferase reporter) in HEK293 cells expressing cRXFP1; rhRLN3 10^-12 to 10^-7 M, 6 h [7]: 2.68 nM
EC50 of inhibition of forskolin-stimulated luciferase activity, cAMP/PKA pathway (pGL3-CRE-luciferase reporter) in HEK293 cells expressing cRXFP3; rhRLN3 10^-12 to 10^-7 M, 6 h [8]: 41.5 nM

relaxin 3 [RLN3]
RXFP1 activation, cAMP production ([9]; HEK293T cells): able to activate RXFP1 inducing a dose-dependent increase in cAMP production
RXFP1 activation in mammals ([9]; mammals, Halls et al., 2006): RXFP1 can be activated by RLN3
RXFP3, cAMP level on ligand binding [10]: cAMP level decrease upon ligand binding
plasma LH, ACTH and corticosterone levels [11]: can also increase plasma LH, ACTH, and corticosterone levels
release of GnRH and CRH from hypothalamic explants [12]: can stimulate rat hypothalamic explants to release GnRH and CRH
production of E2 during follicular development [13]: promotes the production of E2 during follicular development
potency on RXFP3 compared with RXFP1 in mammals [14]: a higher potency for RXFP3 activation than for RXFP1
